Results as given in ChEMBL document CHEMBL1159227, “Piperogalin, a new prenylated diphenol from Peperomia galioides” (1995).
Calls of active or inactive are those of the source. The calls are words filed in the database; no cut-off is given here.

Tests used:
[1] = test system: Leishmania amazonensis; experiment: Antileishmanial activity against Leishmania amazonensis promastigotes assessed as total lysis of parasites at 50 ug/ml after 24 hrs at 28 degC; type: functional, organism-based
[2] = test system: Leishmania donovani; experiment: Antileishmanial activity against Leishmania donovani PP75 promastigotes assessed as total lysis of parasites at 100 ug/ml after 24 hrs at 28 degC; type: functional, organism-based
[3] = test system: Leishmania donovani; experiment: Antileishmanial activity against Leishmania donovani PP75 promastigotes assessed as lysis of parasites at 10 ug/ml after 24 hrs at 28 degC; type: functional
[4] = test system: Leishmania amazonensis; experiment: Antileishmanial activity against Leishmania amazonensis promastigotes assessed as lysis of parasites at 10 ug/ml after 24 hrs at 28 degC; type: functional
[5] = test system: Leishmania donovani; experiment: Antileishmanial activity against Leishmania donovani PP75 promastigotes assessed as total lysis of parasites at 25 ug/ml after 24 hrs at 28 degC; type: functional, organism-based
[6] = test system: Leishmania braziliensis; experiment: Antileishmanial activity against Leishmania braziliensis 2903 promastigotes assessed as total lysis of parasites at 100 ug/ml after 24 hrs at 28 degC; type: functional, organism-based
[7] = test system: Leishmania amazonensis; experiment: Antileishmanial activity against Leishmania amazonensis promastigotes assessed as total lysis of parasites at 25 ug/ml after 24 hrs at 28 degC; type: functional, organism-based
[8] = test system: Trypanosoma cruzi; experiment: Antitrypanosomal activity against Trypanosoma cruzi Y trypomastigotes assessed as lysis of trypomastigotes at 250 ug/ml after 24 hrs at 4 degC; type: functional
[9] = test system: Leishmania amazonensis; experiment: Antileishmanial activity against Leishmania amazonensis H142 promastigotes assessed as total lysis of parasites at 100 ug/ml after 24 hrs at 28 degC; type: functional, organism-based
[10] = test system: Leishmania braziliensis; experiment: Antileishmanial activity against Leishmania braziliensis 2903 promastigotes assessed as total lysis of parasites at 25 ug/ml after 24 hrs at 28 degC; type: functional, organism-based
[11] = test system: Leishmania braziliensis; experiment: Antileishmanial activity against Leishmania braziliensis 2903 promastigotes assessed as lysis of parasites at 10 ug/ml after 24 hrs at 28 degC; type: functional
[12] = test system: Leishmania donovani; experiment: Antileishmanial activity against Leishmania donovani PP75 promastigotes assessed as total lysis of parasites at 50 ug/ml after 24 hrs at 28 degC; type: functional, organism-based
[13] = test system: Leishmania donovani; experiment: Antileishmanial activity against Leishmania donovani PP75 promastigotes assessed as immobilized parasites at 10 ug/ml after 24 hrs at 28 degC; type: functional, organism-based
[14] = test system: Leishmania braziliensis; experiment: Antileishmanial activity against Leishmania braziliensis 2903 promastigotes assessed as total lysis of parasites at 50 ug/ml after 24 hrs at 28 degC; type: functional, organism-based
[15] = test system: Leishmania amazonensis; experiment: Antileishmanial activity against Leishmania amazonensis promastigotes assessed as immobilized parasites at 10 ug/ml after 24 hrs at 28 degC; type: functional, organism-based
[16] = test system: Leishmania braziliensis; experiment: Antileishmanial activity against Leishmania braziliensis 2903 promastigotes assessed as immobilized parasites at 10 ug/ml after 24 hrs at 28 degC; type: functional, organism-based
[17] = test system: Leishmania braziliensis; experiment: Antileishmanial activity against Leishmania braziliensis 2903 promastigotes assessed as immobilized parasites at 100 ug/ml after 24 hrs at 28 degC; type: functional, organism-based

Row | Compound | Activity [1] | Activity [2] | Activity [3] [%] | Activity [4] [%] | Activity [5] | Activity [6] | Activity [7] | Activity [8] [%] | Activity [9] | Activity [10] | Activity [11] [%] | Activity [12] | Activity [13] | Activity [14] | Activity [15] | Activity [16] | Activity [17]
1 | CC(C)=CCC/C(C)=C/Cc1c(O)cc(C)c(CC=C(C)C)c1O [PIPEROGALIN] | Active | Active | >90 | >90 | Active | Active | Active | 42 | Active | Active | >90 | Active |  |  |  |  | 
2 | CC(C)=CCC/C(C)=C/CC/C(C)=C/Cc1c(O)cc(C)cc1O [GRIFOLIN] | Active | Active |  |  | Active | Active | Active | 68 | Active | Active |  | Active | Active | Active | Active | Active | 
3 | CC(C)=CCC/C(C)=C/CC/C(C)=C/Cc1c(O)cc(C)c(C(=O)O)c1O [GRIFOLIC ACID] |  | Active |  |  |  |  |  | 0 | Active |  |  |  |  |  |  |  | Active
